The structures appear in SMILES notation.

Data set [1] relates to liver disease (hepatitis) induced by D-galactosamine. The data set can be described thus: Activity against liver disease (hepatitis) induced by D-galactosamine. In kind it is in vivo, rats (SD strain). To be noted: test compound orally 400 mg./kg. each time (0, 4, 10, 24 h); D-galactosamine hydrochloride s.c. 200 mg./kg. (4, 10, 24 h); blood collection at 28 h; nine rats per group. The method, then:
Activity against liver disease (hepatitis) induced by D-galactosamine
D-Galactosamine hydrochloride and the above-listed compound were administered (1) subcutaneously in the dosage of 200 mg./kg. each time and (2) orally in the dosage of 400 mg./kg. each time, respectively, to rats (SD strain, weight: approximately 250 g.) according to the schedule described hereinafter. After completion of the administrations, the blood was collected from the rats and there were measured the GOT value, GPT value and alkali phosphotase value, all of which are indicative of the degree of liver disease.
Each test compound was administered in the form of a suspension thereof in a 5% aqueous gum arabic solution. The D-galactosamine hydrochloride was administered in the form of an aqueous solution thereof in distilled water adjusted to pH 7 by addition of potassium hydroxide.
There were provided the test compound groups (nine rats per each group) in which the rats were administered with the test compound and with D-galactosamine hydrochloride; a control group (fourteen rats) in which the rats were administered with a plain 5% aqueous gum arabic solution free of the test compound and with D-galactosamine hydrochloride; and a normal group (eight rats) in which the rats were not administered with either the test compound or D-galactosamine hydrochloride.
4 test compound and D-galactosamine
10 test compound and D-galactosamine
24 test compound and D-galactosamine

Another data set deals with rats (Wistar strain). The data set can be described thus: Toxicity (oral administration to rats). It is filed as in vivo. To be noted: orally, 4,000 mg./kg., ten rats (Wistar strain), suspended in 5% aqueous gum arabic solution. The method, then:
Each of the above-listed compounds, A, B, C and D was suspended in a 5% aqueous gum arabic solution and then was administered orally to ten rats (Wistar strain) in the dosage of 4,000 mg./kg.

In data set [1], `CC(C)=CCC/C(C)=C/CC/C(C)=C/CCC(C)CC(=O)O` (stereo not shown) [Compound A, (E, E)-3,7,11,15-tetramethyl-6,10,14-hexadecatrienoic acid] registered an Alkali phosphatase value of 56.2 KA - u, a GOT value of 312.4 carmen unit and a GPT value of 208.3 carmen unit. The “Deaths of the rats” value with rats (Wistar strain) is listed as “No deaths of the rats were observed”.
Regarding `CCOC(=O)CC(C)CC/C=C(\C)CC/C=C(\C)CCC=C(C)C` (stereo not shown) [Compound B, ethyl (E, E)-3,7,11,15-tetramethyl-6,10,14-hexadecatrienoate], in data set [1], the Alkali phosphatase value came out at 55.8 KA - u, the GOT value was found to be 307.1 carmen unit and the GPT value amounted to 199.7 carmen unit. Moreover, the “Deaths of the rats” value in the data set with rats (Wistar strain) is “No deaths of the rats were observed”.
For the compound `CC(C)=CCC/C(C)=C/CC/C(C)=C/CCC(C)CCO` (stereo not shown) [Compound C, (E, E)-3,7,11,15-tetramethyl-6,10,14-hexadecatrien-1-ol], in data set [1], the Alkali phosphatase value stood at 54.2 KA - u, the GOT value was determined as 337.7 carmen unit and the GPT value is given as 185.6 carmen unit. For the same compound, the “Deaths of the rats” value in the data set with rats (Wistar strain) is listed as “No deaths of the rats were observed”.
In data set [1], `CC(=O)OCCC(C)CC/C=C(\C)CC/C=C(\C)CCC=C(C)C` (stereo not shown) [Compound D, (E, E)-3,7,11,15-tetramethyl-6,10,14-hexadecatrienyl acetate] registered an Alkali phosphatase value of 53.5 KA - u, a GOT value of 315.3 carmen unit and a GPT value of 178.7 carmen unit. Besides, the “Deaths of the rats” value in the data set with rats (Wistar strain) is recorded as “No deaths of the rats were observed”.

Source of the values: patent US4571408A, “α,β-Dihydropolyprenyl derivatives for treating hepatitis” (Eisai Co., Ltd., priority 1980, dated 1986).
